Calls of active or inactive are those of the source.

The results in this text go back to ChEMBL document CHEMBL1201862, “PubChem BioAssay data set” (2004).

The target in one experiment is Chaperone protein dnaK (Escherichia coli, UniProt C3TRK2). Briefly: E. coli DnaK binders, calorimetric Kd – biophysical, isothermal titration calorimetry, beta-domain, full-length DnaK, orthogonal assay for DnaK modulator project, SAR follow-up (AID 1495).
Another experiment deals with Staphylococcus aureus. In words: Inhibitors of Bacterial Quorum Sensing Structure Activity Relationship (SAR) Analysis: Dose Response Assay. [Related pubchem assays: 700, 527 ]. It is filed as functional, organism-based.
The test system of a further experiment is Vero. Briefly: host cell viability loss, Vero E6 – synthesized analogs, cytotoxicity control for West Nile virus antiviral project, SAR follow-up (AID 2244). In kind it is functional. Particulars: Chlorocebus sabaeus.
The target in experiment [1] is G-protein coupled receptor 35 (Homo sapiens, UniProt Q9HC97). Briefly: inhibition of zaprinast-stimulated GPR35 beta-arrestin translocation – imaging, U2OS, beta-arrestin-GFP, zaprinast agonist, primary screen (AID 2058).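 Note: antagonist potency meaning inhibition of agonist-induced arrestin redistribution.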 In kind it is functional.
Sequence of G-protein coupled receptor 35 (Q9HC97 whole entry): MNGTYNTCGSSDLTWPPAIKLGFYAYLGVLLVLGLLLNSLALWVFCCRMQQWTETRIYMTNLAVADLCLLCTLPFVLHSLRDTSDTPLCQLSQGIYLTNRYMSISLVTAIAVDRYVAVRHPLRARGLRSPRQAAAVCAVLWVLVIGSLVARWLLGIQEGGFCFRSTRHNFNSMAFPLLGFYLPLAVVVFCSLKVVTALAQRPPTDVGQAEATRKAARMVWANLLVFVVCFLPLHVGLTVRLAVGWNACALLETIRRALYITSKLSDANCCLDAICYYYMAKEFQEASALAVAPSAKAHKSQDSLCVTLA
The target in experiment [2] is Cyclin-dependent kinase 5/CDK5 activator 1 (Homo sapiens, UniProt Q00535). In words: blockade of human CDK5 activity – biochemical, cherry-picked samples, set 2, dose response (AID 504545).
Sequence of Cyclin-dependent kinase 5/CDK5 activator 1 (Q00535 whole entry): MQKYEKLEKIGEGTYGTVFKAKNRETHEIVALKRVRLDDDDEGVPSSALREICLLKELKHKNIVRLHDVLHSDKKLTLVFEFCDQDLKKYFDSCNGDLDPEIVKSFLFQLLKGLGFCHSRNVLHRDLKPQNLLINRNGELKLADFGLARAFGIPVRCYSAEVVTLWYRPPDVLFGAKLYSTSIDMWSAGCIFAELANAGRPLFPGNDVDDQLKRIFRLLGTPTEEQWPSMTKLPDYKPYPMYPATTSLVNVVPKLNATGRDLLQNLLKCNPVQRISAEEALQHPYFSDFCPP
Sequence of Cyclin-dependent kinase 5/CDK5 activator 1 (Q15078 whole entry, further chain): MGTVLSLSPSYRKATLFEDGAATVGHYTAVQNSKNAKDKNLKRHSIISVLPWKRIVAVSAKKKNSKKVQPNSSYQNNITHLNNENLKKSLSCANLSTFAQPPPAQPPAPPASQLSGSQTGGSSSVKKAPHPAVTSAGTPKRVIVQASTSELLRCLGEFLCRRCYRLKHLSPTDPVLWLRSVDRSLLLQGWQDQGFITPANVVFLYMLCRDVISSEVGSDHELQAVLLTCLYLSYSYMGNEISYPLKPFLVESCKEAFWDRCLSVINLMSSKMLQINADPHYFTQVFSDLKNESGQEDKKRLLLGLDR
In the next experiment the target is T1, Aspartyl aminopeptidase (Plasmodium falciparum 3D7, UniProt Q8I2J3).
T1 sequence (Q8I2J3 whole entry): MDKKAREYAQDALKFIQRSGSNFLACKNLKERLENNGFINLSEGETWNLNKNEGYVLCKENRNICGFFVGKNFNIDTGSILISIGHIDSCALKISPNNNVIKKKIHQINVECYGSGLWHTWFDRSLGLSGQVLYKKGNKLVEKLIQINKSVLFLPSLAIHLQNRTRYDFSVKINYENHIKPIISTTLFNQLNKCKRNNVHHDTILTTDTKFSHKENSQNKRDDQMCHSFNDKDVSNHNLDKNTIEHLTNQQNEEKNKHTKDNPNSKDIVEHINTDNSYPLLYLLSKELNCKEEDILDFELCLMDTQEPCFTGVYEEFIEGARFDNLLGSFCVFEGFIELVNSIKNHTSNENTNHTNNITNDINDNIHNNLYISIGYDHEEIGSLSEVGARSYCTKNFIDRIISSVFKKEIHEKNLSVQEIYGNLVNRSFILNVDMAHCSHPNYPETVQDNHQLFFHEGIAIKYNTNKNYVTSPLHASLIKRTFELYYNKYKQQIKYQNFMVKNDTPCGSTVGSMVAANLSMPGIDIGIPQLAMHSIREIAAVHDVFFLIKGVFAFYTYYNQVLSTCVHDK

For the next experiment, the target named is Procathepsin L (Homo sapiens, UniProt P07711).
Sequence of Procathepsin L (P07711 whole entry): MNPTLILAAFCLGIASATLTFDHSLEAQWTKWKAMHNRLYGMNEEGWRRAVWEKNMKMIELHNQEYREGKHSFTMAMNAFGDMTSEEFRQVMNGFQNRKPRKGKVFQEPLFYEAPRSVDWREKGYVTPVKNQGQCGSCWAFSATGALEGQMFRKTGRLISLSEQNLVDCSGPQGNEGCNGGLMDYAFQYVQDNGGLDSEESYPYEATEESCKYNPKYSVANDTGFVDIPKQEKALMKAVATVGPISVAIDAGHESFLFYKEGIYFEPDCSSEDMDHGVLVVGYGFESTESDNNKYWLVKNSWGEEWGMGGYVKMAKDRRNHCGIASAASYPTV

Sequence of Chaperone protein dnaK (C3TRK2 whole entry): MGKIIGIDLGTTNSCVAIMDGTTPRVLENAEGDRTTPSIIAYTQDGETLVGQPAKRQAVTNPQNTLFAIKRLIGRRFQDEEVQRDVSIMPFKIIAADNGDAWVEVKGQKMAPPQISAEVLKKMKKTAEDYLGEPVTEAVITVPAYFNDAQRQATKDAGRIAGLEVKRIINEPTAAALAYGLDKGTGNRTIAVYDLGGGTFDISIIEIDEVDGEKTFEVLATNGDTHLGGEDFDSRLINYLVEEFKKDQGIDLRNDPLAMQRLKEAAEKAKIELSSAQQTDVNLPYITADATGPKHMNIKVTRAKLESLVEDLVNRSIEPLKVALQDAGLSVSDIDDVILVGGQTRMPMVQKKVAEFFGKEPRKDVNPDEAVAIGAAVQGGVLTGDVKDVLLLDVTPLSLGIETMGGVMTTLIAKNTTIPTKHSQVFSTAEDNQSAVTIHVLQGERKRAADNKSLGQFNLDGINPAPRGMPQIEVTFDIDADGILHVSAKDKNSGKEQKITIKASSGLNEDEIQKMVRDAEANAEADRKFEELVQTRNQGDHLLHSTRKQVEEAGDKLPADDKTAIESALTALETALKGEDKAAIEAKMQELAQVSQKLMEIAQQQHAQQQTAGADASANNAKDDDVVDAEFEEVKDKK

On to `O=C(NCc1ccccc1Br)c1cccs1`, for which the Kd on Chaperone protein dnaK is 39.3 µM (inactive).

Turning to `CC1CCCN(C(C(=O)Nc2ccc3c(c2)OCCO3)c2ccccc2)C1` (configuration not stated), in the experiment with Staphylococcus aureus, the IC50 is 0.125 µM (active).

`O=C(Nc1nc(-c2ccccc2)cs1)c1ccccc1Cl`: the CC50 with Vero was 14 µM (active).

In the case of `CN1CC=C2C(C#N)=C(N)C(C#N)(C#N)C(c3ccsc3)C2C1` (configuration not stated), the IC50 in experiment [1] was 0.991 µM (active).

Consider `CC(C)n1cnc2c(Nc3ccc(F)c(Cl)c3)nc(NCCO)nc21`, for which the AC50 in experiment [2] is 3.36 µM (active).

Regarding `O=C(Nn1cnnc1)c1ccccc1-c1ccccc1`, the IC50 on Aspartyl aminopeptidase is 2.89 µM (active); on Procathepsin L it was > 59.6 µM (not active).
